From patent US20250171437A1 (Agios Pharmaceuticals,Inc., priority 2022, published 2025)

Molecular target: T1, human PAH with the R408W mutation (A375 R408W cells) (Homo sapiens, UniProt P00439, R408W)
T1 construct: expressed in transfected cells
T1 sequence (P00439 1-452 R408W): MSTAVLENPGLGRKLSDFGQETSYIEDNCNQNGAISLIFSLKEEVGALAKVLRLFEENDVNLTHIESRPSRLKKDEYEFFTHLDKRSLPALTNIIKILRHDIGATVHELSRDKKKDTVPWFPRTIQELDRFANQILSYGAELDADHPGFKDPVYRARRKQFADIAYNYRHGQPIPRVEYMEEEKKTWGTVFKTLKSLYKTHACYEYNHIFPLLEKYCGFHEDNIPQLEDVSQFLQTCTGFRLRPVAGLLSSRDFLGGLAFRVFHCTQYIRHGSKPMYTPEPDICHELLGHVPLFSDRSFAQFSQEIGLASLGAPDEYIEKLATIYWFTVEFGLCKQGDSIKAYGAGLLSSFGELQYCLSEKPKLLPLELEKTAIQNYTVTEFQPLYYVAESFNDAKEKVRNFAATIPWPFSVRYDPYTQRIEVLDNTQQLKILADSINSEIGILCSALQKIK
Test: Cell Based Phenylalanine Flux Assay
Conditions: A375 R408W cells; 24 hrs with compound, then 20 μM sepiapterin and 800 μM 13C9,15N-Phenylalanine for 4 hours; 13C-Tyrosine by LC-MS; average where tested multiple times
Method in brief: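 AC50 is derived from LC-MS of 13C-tyrosine in the media after a 4 h pulse of 800 μM 13C9,15N-phenylalanine plus 20 μM sepiapterin. The A375 R408W PAH cells had received duplicate 10-point, 2-fold compound dilutions (0.5% DMSO) for 24 h beforehand.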

| Compound | AC50 |
| --- | --- |
| O=C(c1nnc(-c2ccn(C(F)F)n2)o1)N1CCc2[nH]cnc2[C@H]1c1nc2cccc(C(F)(F)F)c2o1 [Example 854, (S)-(5-(1-(difluoromethyl)-1H-pyrazol-3-yl)-1,3,4-oxadiazol-2-yl)(4-(7-(trifluoromethyl)benzo[d]oxazol-2-yl)-6,7-dihydro-1H-imidazo[4,5-c]pyridin-5(4H)-yl)methanone] | ≤ 500 nM |
| O=C(c1ocnc1C(F)F)N1CCc2[nH]cnc2[C@@H]1c1nc2cc(Cl)cc(F)c2o1 [Example 607, (R)-(4-(5-chloro-7-fluorobenzo[d]oxazol-2-yl)-6,7-dihydro-1H-imidazo[4,5-c]pyridin-5(4H)-yl)(4-(difluoromethyl)oxazol-5-yl)methanone] | ≤ 500 nM |
| Cc1cccc2oc([C@H]3c4nc[nH]c4CCN3C(=O)c3oc(C(C)(C)O)nc3C(F)F)nc12 [Example 362, (R)-(4-(difluoromethyl)-2-(2-hydroxypropan-2-yl)oxazol-5-yl)(4-(4-methylbenzo[d]oxazol-2-yl)-6,7-dihydro-1H-imidazo[4,5-c]pyridin-5(4H)-yl)methanone] | 1000 to 5000 nM |
| O=C(c1ocnc1C(F)(F)F)N1CCc2[nH]cnc2[C@H]1c1nc2c(F)cccc2o1 [Example 167, (S)-(4-(4-fluorobenzo[d]oxazol-2-yl)-6,7-dihydro-1H-imidazo[4,5-c]pyridin-5(4H)-yl)(4-(trifluoromethyl)oxazol-5-yl)methanone] | ≤ 500 nM |
| CC(C)(O)c1nc(C(F)F)c(C(=O)N2CCc3[nH]cnc3[C@@H]2c2nc3c(F)cccc3o2)o1 [Example 200, (R)-(4-(difluoromethyl)-2-(2-hydroxypropan-2-yl)oxazol-5-yl)(4-(4-fluorobenzo[d]oxazol-2-yl)-6,7-dihydro-1H-imidazo[4,5-c]pyridin-5(4H)-yl)methanone] | 1000 to 5000 nM |
| CC(C)(O)c1nc(C(F)F)c(C(=O)N2CCc3[nH]cnc3[C@H]2c2nc3c(Br)cccc3o2)o1 [Example 431, (S)-(4-(4-bromobenzo[d]oxazol-2-yl)-6,7-dihydro-1H-imidazo[4,5-c]pyridin-5(4H)-yl)(4-(difluoromethyl)-2-(2-hydroxypropan-2-yl)oxazol-5-yl)methanone] | ≤ 500 nM |
| Cc1cccc2nc([C@H]3c4nc[nH]c4CCN3C(=O)c3oc(C(C)(C)O)nc3C(F)F)oc12 [Example 391, (R)-(4-(difluoromethyl)-2-(2-hydroxypropan-2-yl)oxazol-5-yl)(4-(7-methylbenzo[d]oxazol-2-yl)-6,7-dihydro-1H-imidazo[4,5-c]pyridin-5(4H)-yl)methanone] | 1000 to 5000 nM |
| Cn1cc(-c2nc(C(F)(F)F)c(C(=O)N3CCc4[nH]cnc4[C@H]3c3nc4cccc(F)c4o3)o2)cn1 [Example 669, (S)-(4-(7-fluorobenzo[d]oxazol-2-yl)-6,7-dihydro-1H-imidazo[4,5-c]pyridin-5(4H)-yl)(2-(1-methyl-1H-pyrazol-4-yl)-4-(trifluoromethyl)oxazol-5-yl)methanone] | ≤ 500 nM |
| Cc1cc(F)ccc1-c1nnc(C(=O)N2CCc3[nH]cnc3[C@@H]2c2nc3cc(F)ccc3o2)o1 [Example 78, (R)-(5-(4-fluoro-2-methylphenyl)-1,3,4-oxadiazol-2-yl)(4-(5-fluorobenzo[d]oxazol-2-yl)-6,7-dihydro-1H-imidazo[4,5-c]pyridin-5(4H)-yl)methanone] | 1000 to 5000 nM |
| Cc1ccc2oc([C@H]3c4nc[nH]c4CCN3C(=O)c3nnc(-c4ccn(C(F)F)n4)o3)nc2c1 [Example 696, (R)-(5-(1-(difluoromethyl)-1H-pyrazol-3-yl)-1,3,4-oxadiazol-2-yl)(4-(5-methylbenzo[d]oxazol-2-yl)-6,7-dihydro-1H-imidazo[4,5-c]pyridin-5(4H)-yl)methanone] | 1000 to 5000 nM |
| O=C(CCc1ncco1)N1CCc2[nH]cnc2[C@@H]1c1nc2cccc(F)c2o1 [Example 388, (R)-1-(4-(7-fluorobenzo[d]oxazol-2-yl)-6,7-dihydro-1H-imidazo[4,5-c]pyridin-5(4H)-yl)-3-(oxazol-2-yl)propan-1-one] | ≥ 5000 nM |
| Cc1nc(C(=O)N2CCc3[nH]cnc3[C@@H]2c2nc3cccc(C)c3o2)n(C)n1 [Example 908, (R)-(1,3-dimethyl-1H-1,2,4-triazol-5-yl)(4-(7-methylbenzo[d]oxazol-2-yl)-6,7-dihydro-1H-imidazo[4,5-c]pyridin-5(4H)-yl)methanone] | 1000 to 5000 nM |
| O=C(c1oc(-c2ccc(C(F)(F)F)cn2)nc1C(F)F)N1CCc2[nH]cnc2[C@H]1c1nc2cc(F)ccc2o1 [Example 444, (S)-(4-(difluoromethyl)-2-(5-(trifluoromethyl)pyridin-2-yl)oxazol-5-yl)(4-(5-fluorobenzo[d]oxazol-2-yl)-6,7-dihydro-1H-imidazo[4,5-c]pyridin-5(4H)-yl)methanone] | ≤ 500 nM |

Now from value to compound:

| AC50 | Compound |
| --- | --- |
| 500 to 1000 nM | O=C(c1oc(-c2ccccn2)nc1C(F)F)N1CCc2[nH]cnc2[C@@H]1c1nc2ccccc2o1 [Example 739, (R)-(4-(benzo[d]oxazol-2-yl)-6,7-dihydro-1H-imidazo[4,5-c]pyridin-5(4H)-yl)(4-(difluoromethyl)-2-(pyridin-2-yl)oxazol-5-yl)methanone] |
| 1000 to 5000 nM | O=C(c1nnc(-c2ccccn2)o1)N1CCc2[nH]cnc2[C@@H]1c1nc2ccccc2o1 [Example 584, (R)-(4-(benzo[d]oxazol-2-yl)-6,7-dihydro-1H-imidazo[4,5-c]pyridin-5(4H)-yl)(5-(pyridin-2-yl)-1,3,4-oxadiazol-2-yl)methanone] |
| 1000 to 5000 nM | Cc1cc(C(=O)N2CCc3[nH]cnc3[C@H]2c2nc3cccc(F)c3o2)n(C)n1 [Example 769, (S)-(1,3-dimethyl-1H-pyrazol-5-yl)(4-(7-fluorobenzo[d]oxazol-2-yl)-6,7-dihydro-1H-imidazo[4,5-c]pyridin-5(4H)-yl)methanone] |
| ≤ 500 nM | O=C(c1nnc(-c2ccccn2)o1)N1CCc2[nH]cnc2[C@H]1c1nc2cccc(C(F)(F)F)c2o1 [Example 838, (S)-(5-(pyridin-2-yl)-1,3,4-oxadiazol-2-yl)(4-(7-(trifluoromethyl)benzo[d]oxazol-2-yl)-6,7-dihydro-1H-imidazo[4,5-c]pyridin-5(4H)-yl)methanone] |
| ≤ 500 nM | O=C(c1cnn2cc(Br)c(Cl)cc12)N1CCc2[nH]cnc2[C@H]1c1nc2cc(F)ccc2o1 [Example 165, (S)-(6-bromo-5-chloropyrazolo[1,5-a]pyridin-3-yl)(4-(5-fluorobenzo[d]oxazol-2-yl)-6,7-dihydro-1H-imidazo[4,5-c]pyridin-5(4H)-yl)methanone] |
| 500 to 1000 nM | O=C(c1ccnn1CC(F)F)N1CCc2[nH]cnc2[C@@H]1c1nc2cccc(F)c2o1 [Example 848, (R)-(1-(2,2-difluoroethyl)-1H-pyrazol-5-yl)(4-(7-fluorobenzo[d]oxazol-2-yl)-6,7-dihydro-1H-imidazo[4,5-c]pyridin-5(4H)-yl)methanone] |
| ≤ 500 nM | O=C(c1ccnn1C1CC1)N1CCc2[nH]cnc2[C@H]1c1nc2ccccc2o1 [Example 725, (S)-(4-(benzo[d]oxazol-2-yl)-6,7-dihydro-1H-imidazo[4,5-c]pyridin-5(4H)-yl)(1-cyclopropyl-1H-pyrazol-5-yl)methanone] |
| ≤ 500 nM | Cc1cccc2nc([C@@H]3c4nc[nH]c4CCN3C(=O)c3nnc(-c4ccn(C)n4)o3)oc12 [Example 869, (S)-(5-(1-methyl-1H-pyrazol-3-yl)-1,3,4-oxadiazol-2-yl)(4-(7-methylbenzo[d]oxazol-2-yl)-6,7-dihydro-1H-imidazo[4,5-c]pyridin-5(4H)-yl)methanone] |
| 1000 to 5000 nM | Cc1ccc2nc([C@@H]3c4nc[nH]c4CCN3C(=O)c3nnc(-c4cnn(C)c4)o3)oc2c1 [Example 103, (S)-(5-(1-methyl-1H-pyrazol-4-yl)-1,3,4-oxadiazol-2-yl)(4-(6-methylbenzo[d]oxazol-2-yl)-6,7-dihydro-1H-imidazo[4,5-c]pyridin-5(4H)-yl)methanone] |
| ≤ 500 nM | O=C(c1ocnc1C(F)F)N1CCc2[nH]cnc2[C@H]1c1nc2cc(Br)ccc2o1 [Example 149, (S)-(4-(5-bromobenzo[d]oxazol-2-yl)-6,7-dihydro-1H-imidazo[4,5-c]pyridin-5(4H)-yl)(4-(difluoromethyl)oxazol-5-yl)methanone] |

Same assay, conditions: A375 cells expressing R408W PAH; 24 hrs with compound, then 20 μM sepiapterin and 800 μM 13C9,15N-Phenylalanine for 4 hours; 13C-Tyrosine by LC-MS; average where tested multiple times

| Compound | AC50 |
| --- | --- |
| O=C(c1nnc(-c2cnn(C(F)F)c2)o1)N1CCc2[nH]cnc2C1c1nc2cccc(C(F)(F)F)c2o1 (centres unmarked) | 1000 to 5000 nM |
| O=C(N1CCc2[nH]cnc2C1c1nc2cc(F)ccc2o1)C(F)(F)C1(O)CCC1 (centres unmarked) | 1000 to 5000 nM |
| O=C(CCc1cnco1)N1CCc2[nH]cnc2C1c1nc2ccc(F)cc2o1 (centres unmarked) | 1000 to 5000 nM |
| Cc1nc(C2(O)CCC2)oc1C(=O)N1CCc2[nH]cnc2C1c1nc2cc(F)ccc2o1 (centres unmarked) | ≥ 5000 nM |

The next lines start with the values.

| AC50 | Compound |
| --- | --- |
| ≥ 5000 nM | O=C(c1cnn2cc(N3CCC(O)CC3)ccc12)N1CCc2[nH]cnc2C1c1nc2c(F)cccc2o1 (centres unmarked) |
| 1000 to 5000 nM | O=C(c1cnn2cc(CN3CCOCC3)ccc12)N1CCc2[nH]cnc2C1c1nc2cc(F)ccc2o1 (centres unmarked) |
| 1000 to 5000 nM | Cn1cc(-c2ncc(C(=O)N3CCc4[nH]cnc4C3c3nc4ccc(Br)cc4o3)o2)cn1 (centres unmarked) |
| ≥ 5000 nM | O=C(c1cnco1)N1CCc2[nH]cnc2C1c1nc2cc(F)ccc2o1 (centres unmarked) |
| 1000 to 5000 nM | Cn1nc(C(F)F)cc1C(=O)N1CCc2[nH]cnc2C1c1nc2cc(F)ccc2o1 (centres unmarked) |
